Reference: patent US9206124B2, “Treatment of drug-resistant cancer with 2-aryl-2-(3-indolyl) acetohydroxamates” (New Mexico Technical Research Foundation, priority 2013, dated 2015)

System: GBM 031810 neurosphere cells
Experiment: Antiproliferative effect on patient-derived GBM neurosphere culture
Assay type: cell-based
Conditions: Homo sapiens, average IC50 ± SD from three determinations, read-out: GI50 in vitro, GBM 031810 (average IC50)
Text: Given the ability of the hydroxamates to overcome drug resistance a few select compounds were further evaluated against glioma cells grown in neurosphere conditions, which are known to promote the growth of stem-like cells from human glioma tissue. Indeed, the neurospheres show the ability of self-renewal by regrowing in culture from individual cells, and can differentiate into multiple neural lineages and recapitulate human gliomas on both histological and genetic levels more faithfully than serum cultured glioma cell lines when injected into the brains of mice. Because, neurosphere cells are generally resistant to radiation and chemotherapy, the micromolar to submicromolar activity of the hydroxamates against the glioma neurosphere cell cultures is noteworthy (Table 4). […] It is worthy of note, that the unmethylated MGMT promoter leading to such temozolomide resistance is found in about half of all GBM patients, who respond poorly to temozolomide chemotherapy. To date, no alternative treatment exists for this group of patients.
Human cancer cell lines were obtained from the American Type Culture Collection (ATCC, Manassas, Va., USA), the European Collection of Cell Culture (ECACC, Salisbury, UK) and the Deutsche Sammlung von Mikroorganismen and Zellkulturen (DSMZ, Braunschweig, Germany). Human cervical adenocarcinoma HeLa cells were cultured in DMEM supplemented with 10% fetal bovine serum (FBS). Human mammary carcinoma MCF-7 cells were cultured in RPMI supplemented with 10% FBS. The U87 cells (ATCC HTB-14) were cultured in DMEM culture medium, while the A549 cells (DSMZ ACC107) were cultured in RPMI culture medium supplemented with 10% heat-inactivated FBS. The glioblastoma multiforme Hs683 (ATCC HTB-138) and the T98G (ATCC CRL-1690) cell lines were cultivated in DMEM supplemented with 10% FBS. The Human uterine sarcoma MES-SA and MES-SA/Dx5 cells were cultured in RPMI-1640 medium supplemented with 10% FBS with MES SA/Dx5 maintained in the presence of 500 nM Doxorubicin (Sigma). SKMEL-28 cells (ATCC HTB72) and U373 glioblastoma cells (ECACC 08061901) were cultured in RPMI culture medium supplemented with 10% heat-inactivated FBS. Cell culture media were supplemented with 4 mM glutamine (Lonza code BE17-605E), 100 μg/mL gentamicin (Lonza code 17-5182), and penicillin-streptomycin (200 units/ml and 200 μg/ml) (Lonza code 17-602E). Neurosphere culture GBM 031810 was established using known methods and maintained in Neurobasal medium (Invitrogen Carlsbad, Calif.) with B27 supplement (20 ul/ml; Invitrogen), Glutamax (10 ul/ml; Invitrogen), fibroblast growth factor-2 (20 ng/ml; Peprotech, Rocky Hill, N.J., USA), epidermal growth factor (20 ng/ml; Peprotech), heparin (32 IE/ml; Sigma Aldrich, St. Louis, Mo.), and penicillin-streptomycin (1×, Invitrogen). […]

Q: Which IC50 does the source give for `O=C(NO)C(c1ccccc1)c1c(-c2ccc3ccccc3c2)[nH]c2ccccc12` (stereo not shown) [Compound 3aafa] here?
A: 800 ± 600 nM
